For 47 compounds, EC50 results are on record in US9388147B2 (Receptos, Inc., priority 2009, dated 2016).

The structures appear in SMILES notation.

Sequence of S1P1/EDG1 (P21453 whole entry): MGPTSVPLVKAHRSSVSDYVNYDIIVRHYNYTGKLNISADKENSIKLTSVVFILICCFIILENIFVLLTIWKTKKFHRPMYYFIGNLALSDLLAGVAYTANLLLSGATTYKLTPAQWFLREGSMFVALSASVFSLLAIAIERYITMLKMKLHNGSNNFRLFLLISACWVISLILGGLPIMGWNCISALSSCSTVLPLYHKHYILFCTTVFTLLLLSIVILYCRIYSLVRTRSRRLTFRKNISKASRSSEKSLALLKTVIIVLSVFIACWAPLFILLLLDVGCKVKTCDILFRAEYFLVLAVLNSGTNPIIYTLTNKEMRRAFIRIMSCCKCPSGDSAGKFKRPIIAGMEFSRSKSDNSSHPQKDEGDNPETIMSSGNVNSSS

The test has as its target S1P1/EDG1 (Homo sapiens, UniProt P21453). Kind of test: S1P1 CRE-bla CHOK1 reporter assay, inhibition of Forskolin induced cAMP. As to conditions: agonist activity range, S1P1 CRE-bla CHOK1, 2 μM Forskolin; read-out: S1P1 ACTIVITY
The test is classed as cell-based. As to the method: Generation of S1P1-Mediated Inhibition of cAMP Reporter Assay
A mammalian expression plasmid containing S1P1/EDG1 cloned into pcDNA3.1 was purchased from Missouri S&T cDNA Resource Centre. […] S1P1/pcDNA3.1 was transfected into the CRE-bla CHO K1 (Invitrogen) cell line, and stable single cell clones were selected using standard techniques.
S1P1 CRE-Bla CHOK1 Reporter Assay—Characterization of S1P1 Agonists
Cells were seeded into 384-well black wall/clear bottom plates at 10^4 cells/well/19.5 μl assay media (DMEM-phenol free, 0.5% charcoal/dextran stripped serum, 2 mM glutamine, 0.1 mM NEAA, 1 mM Na-Pyruvate, 25 mM Hepes) and incubated for 18 hrs at 37° C. in 5% CO2. Dose response curves (10-point) were generated in 10 mM Hepes, 0.1% Pluronic F127, in the presence of Forskolin. Cells were treated with 0.5 μl compound in the presence of 2 μM Forskolin for 4 hrs at 37° C. The FRET-based β-lactamase fluorescent substrate (LiveBLAzer™-FRET B/G Loading Kit CC4-AM; Invitrogen) was prepared according to manufacturer's directions, and incubated with cells for 2 hrs at room temperature. […] Data was analyzed by non-linear regression to determine the EC50 for inhibition of Forskolin induced cAMP.
Regarding `CC(C)Oc1ccc(-c2nc(-c3cccc4c3CC[C@H]4NS(=O)(=O)CC(=O)N3CCOCC3)no2)cc1C#N` [Compound 192], the EC50 is under 50 pM.

Take `CC(C)Oc1ccc(-c2nc(-c3cccc4c3CCC4NCCN3CCNCC3)no2)cc1C#N` (racemic) [Compound 25]: the EC50 is over 5000 pM.

With `CC(C)Oc1ccc(-c2nc(-c3cccc4c3CC[C@@H]4NC(=O)N3CCC(C(=O)O)CC3)no2)cc1C#N` [Compound 239], the EC50 is 50 to 500 pM. The value for `CC(=O)N[C@H]1CCc2c(-c3noc(-c4ccc(OC(C)C)c(C#N)c4)n3)cccc21` [Compound 139, (S)-N-(4-(5-(3 cyano-4-isopropoxyphenyl)-1,2,4-oxadiazol-3-yl)-2,3-dihydro-1H-inden-1-yl)acetamide] was 50 to 500 pM; that for `CCN(CC)CCNC1CCc2c(-c3noc(-c4ccc(OC(C)C)c(C#N)c4)n3)cccc21` (racemic) [Compound 28] was 500 to 5000 pM. Under `CC(C)Oc1ccc(-c2nc(-c3cccc4c3CC[C@H]4NCCC(=O)O)no2)cc1C#N` [Compound 62, (R)-3-((4-(5-(3-cyano-4-isopropoxyphenyl)-1,2,4-oxadiazol-3-yl)-2,3-dihydro-1H-inden-1-yl)amino)propanoic acid] stands under 50 pM; under `CC(C)Oc1ccc(-c2nc(-c3cccc4c3CC[C@H]4NS(=O)(=O)CC(=O)N3CC(O)C3)no2)cc1C#N` [Compound 190], under 50 pM.

Consider `CC(C)Oc1ccc(-c2nc(-c3cccc4c3CCC4N3CC[C@@H](N)C3)no2)cc1C#N` (mixture of isomers) [Compound 31], for which the EC50 is over 5000 pM. For the compound `COC(=O)CCS(=O)(=O)N[C@H]1CCc2c(-c3noc(-c4ccc(OC(C)C)c(C#N)c4)n3)cccc21` [Compound 182], the EC50 lay within 50 to 500 pM. The value for `CC(C)Oc1ccc(-c2nc(-c3cccc4c3CC[C@H]4NC(=O)N3CCC[C@@H](O)C3)no2)cc1C#N` [Compound 219] was 500 to 5000 pM; that for `CC(C)Oc1ccc(-c2nc(-c3cccc4c3CC[C@H]4NC(=O)N3CC[C@@H](O)C3)no2)cc1C#N` [Compound 230] was 50 to 500 pM; that for `COC(=O)N[C@H]1CCc2c(-c3noc(-c4ccc(OC(C)C)c(C#N)c4)n3)cccc21` [Compound 150] was 50 to 500 pM. As to `CCN[C@H]1CCc2c(-c3noc(-c4ccc(OC(C)C)c(C#N)c4)n3)cccc21` [Compound 107], the EC50 was 50 to 500 pM. Take `CC(C)Oc1ccc(-c2nc(-c3cccc4c3CC[C@@H]4N3CC(C(=O)N4CCC4)C3)no2)cc1C#N` [Compound 207]: the EC50 is 50 to 500 pM. The value for `CC(C)Oc1ccc(-c2nc(-c3cccc4c3CC[C@@H]4NC(=O)CN(C)C)no2)cc1C#N` [Compound 136] was 50 to 500 pM. For `CC(C)Oc1ccc(-c2nc(-c3cccc4c3CC[C@H]4NS(=O)(=O)CC(=O)O)no2)cc1C#N` [Compound 184, (R)-2 (N (4-(5-(3 cyano-4-isopropoxyphenyl)-1,2,4-oxadiazol-3-yl)-2,3-dihydro-1H-inden-1-yl)sulfamoyl)acetic acid], the EC50 was under 50 pM. With `CC(C)Oc1ccc(-c2nc(-c3cccc4c3CC[C@@H]4NS(=O)(=O)CC(=O)N3CCC(O)CC3)no2)cc1C#N` [Compound 193], the EC50 is 50 to 500 pM. The value for `CC(C)Oc1ccc(-c2nc(-c3cccc4c3CC[C@@H]4NCCCCC(=O)O)no2)cc1C#N` [Compound 148] was under 50 pM.

For `CNC(=O)CN[C@@H]1CCc2c(-c3noc(-c4ccc(OC(C)C)c(C#N)c4)n3)cccc21` [Compound 52], the EC50 was 50 to 500 pM.

For the compound `CC(C)Oc1ccc(-c2nc(-c3cccc4c3CC[C@H]4N(CCO)S(C)(=O)=O)no2)cc1C#N` [Compound 112, (R)-N-(4-(5-(3 cyano-4-isopropoxyphenyl)-1,2,4-oxadiazol-3-yl)-2,3-dihydro-1H-inden-1-yl)-N-(2-hydroxyethyl)methanesulfonamide], the EC50 is 500 to 5000 pM. Consider `CC(C)Oc1ccc(-c2nc(-c3cccc4c3CCC4N3CC[C@H](O)C3)no2)cc1C#N` (mixture of isomers) [Compound 34], for which the EC50 was 500 to 5000 pM. The value for `CCOc1ccc(-c2nc(-c3cccc4c3CC[C@H]4N)no2)cc1C#N` [Compound 94] was 500 to 5000 pM. The value for `COC(=O)N[C@@H]1CCc2c(-c3noc(-c4ccc(OC(C)C)c(C#N)c4)n3)cccc21` [Compound 149, (R)-methyl (4-(5-(3-cyano-4-isopropoxyphenyl)-1,2,4-oxadiazol-3-yl)-2,3-dihydro-1H-inden-1-yl)carbamate] was 50 to 500 pM; that for `CC(C)Oc1ccc(-c2nc(-c3cccc4c3CCC4NC(C)(C)CO)no2)cc1C#N` (racemic) [Compound 15] was 500 to 5000 pM; that for `CCOc1ccc(-c2nc(-c3cccc4c3CC[C@@H]4O)no2)cc1C(F)(F)F` [Compound 10] was 50 to 500 pM. Take `CC(C)Oc1ccc(-c2nc(-c3cccc4c3CCC4N3CCCCC3)no2)cc1C#N` (racemic) [Compound 48]: the EC50 was over 5000 pM. For the compound `CC(C)Oc1ccc(-c2nc(-c3cccc4c3CCC4NC(CO)CO)no2)cc1C#N` (racemic) [Compound 17, 5-(3-(1-((1,3-dihydroxypropan-2-yl)amino)-2,3-dihydro-1H-inden-4-yl)-1,2,4-oxadiazol-5-yl)-2-isopropoxybenzonitrile], the EC50 was 50 to 500 pM.

For the compound `COC(=O)C1CCN(C(=O)N[C@@H]2CCc3c(-c4noc(-c5ccc(OC(C)C)c(C#N)c5)n4)cccc32)CC1` [Compound 236], the EC50 was in the range of 50 to 500 pM. The value for `CNS(=O)(=O)CCNC1CCc2c(-c3noc(-c4ccc(OC(C)C)c(C#N)c4)n3)cccc21` (racemic) [Compound 45, 2-((4-(5-(3-cyano-4-isopropoxyphenyl)-1,2,4-oxadiazol-3-yl)-2,3-dihydro-1H-inden-1-yl)amino)-N-methylethanesulfonamide] was 50 to 500 pM; that for `CCS(=O)(=O)N[C@H]1CCc2c(-c3noc(-c4ccc(OC(C)C)c(C#N)c4)n3)cccc21` [Compound 73] was 500 to 5000 pM. Regarding `CC(C)Oc1ccc(-c2nc(-c3cccc4c3CC[C@H]4NC(=O)N3CCNCC3)no2)cc1C#N` [Compound 213], the EC50 is 500 to 5000 pM.

`CC(C)Oc1ccc(-c2nc(-c3cccc4c3CC[C@@H]4N[C@@H](C)CO)no2)cc1C#N` [Compound 53, 5-(3-((S)-1-(((S)-1-hydroxypropan-2-yl)amino)-2,3-dihydro-1H-inden-4-yl)-1,2,4-oxadiazol-5-yl)-2-isopropoxybenzonitrile]: the EC50 is 500 to 5000 pM.

As for `CC(C)Oc1ccc(-c2nc(-c3cccc4c3CC[C@H]4NC(=O)N3CCC(O)CC3)no2)cc1C#N` [Compound 240], the EC50 is 500 to 5000 pM. The value for `Cc1cc(CN[C@H]2CCc3c(-c4noc(-c5ccc(OC(C)C)c(C#N)c5)n4)cccc32)[nH]n1` [Compound 162] was 500 to 5000 pM. The value for `CC(C)Oc1cc(C#N)cc(-c2nc(-c3cccc4c3CCC4N)no2)c1` (stereo in doubt) [Compound 97, (R)-3-(3-(1-amino-2,3-dihydro-1H-inden-4-yl)-1,2,4-oxadiazol-5-yl)-5-isopropoxy benzo-nitrile] was over 5000 pM; that for `CC(C)Oc1ccc(-c2nc(-c3cccc4c3CC[C@H]4NS(=O)(=O)Cc3ccccc3)no2)cc1C#N` [Compound 81] was 500 to 5000 pM; that for `CC(C)Oc1ccc(-c2nc(-c3cccc4c3CC[C@@H]4NS(=O)(=O)CC(=O)N(C)C)no2)cc1C#N` [Compound 195, (S)-2 (N (4-(5-(3 cyano-4-isopropoxyphenyl)-1,2,4-oxadiazol-3-yl)-2,3-dihydro-1H-inden-1-yl)sulfamoyl)-N,N-dimethylacetamide] was 50 to 500 pM. Under `COC(=O)CCNC1CCc2c(-c3noc(-c4ccc(OC(C)C)c(C#N)c4)n3)cccc21` (racemic) [Compound 35] stands 50 to 500 pM; under `COC(=O)CCCCNC1CCc2c(-c3noc(-c4ccc(OC(C)C)c(C#N)c4)n3)cccc21` (racemic) [Compound 147], under 50 pM; under `CC(C)Oc1ccc(-c2nc(-c3cccc4c3CC[C@@H]4O)no2)cc1C#N` [Compound 6, (S)-5-(3-(1-hydroxy-2,3-dihydro-1H-inden-4-yl)-1,2,4-oxadiazol-5-yl)-2-isopropoxy-benzonitrile], under 50 pM. Take `CC(C)Oc1ccc(-c2nc(-c3cccc4c3CC[C@@H]4NS(=O)(=O)CCN3CC[C@H](O)C3)no2)cc1C#N` [Compound 174]: the EC50 was in the range of 500 to 5000 pM. For the compound `CC(C)Oc1ccc(-c2nc(-c3cccc4c3CCC4N3CCOCC3)no2)cc1C#N` (racemic) [Compound 46], the EC50 lay in the range of 500 to 5000 pM.

As to `CC(C)Oc1ccc(-c2nc(-c3cccc4c3CC[C@H]4N(CCO)S(=O)(=O)c3ccccc3)no2)cc1C#N` [Compound 117], the EC50 was over 5000 pM. With `CC(C)Oc1ccc(-c2nc(-c3cccc4c3CC[C@@H]4NS(=O)(=O)CC(N)=O)no2)cc1C#N` [Compound 196], the EC50 was under 50 pM. Consider `CC(C)Oc1ccc(-c2nc(-c3cccc4c3CCC4NCCS(C)(=O)=O)no2)cc1C#N` (racemic) [Compound 44], for which the EC50 is 50 to 500 pM. Under `CC(C)Oc1ccc(-c2nc(-c3cccc4c3CC[C@H]4NCC(=O)N3CCC3)no2)cc1C#N` [Compound 128] stands 50 to 500 pM; under `CC(C)Oc1ccc(-c2nc(-c3cccc4c3CC[C@@H]4NCCS(C)(=O)=O)no2)cc1C#N` [Compound 126], 50 to 500 pM.
